This data set can be described thus: in vitro. The following applies: human, hela cells, % viability.

This passage reports viability results from article PMC12040169 (PLOS Biology, 2025).

For orientation: viability means a read-out of living cells in per cent, often relative to untreated cells.

As to `O=S(=O)(NCCc1cccs1)c1cc2c(N3CCNCC3)nccc2s1` [CBK041299C], the viability at 28.5 h, 10 µM came out at 104%.
Under `COc1ccc([C@@]23CC[C@H](NC(=O)Nc4ccc(F)c(F)c4)C[C@@H]2N(Cc2ccccc2)CC3)cc1OC` [CBK041333T] stands 94.5%; under `CCn1cc(C(=O)O)c(=O)c2cnc(N3CCNCC3)nc21` [CBK041585], 90.8%.
The same measure for `COc1ccc([C@@]23CC[C@@H](CNC(=O)c4ccc(C(F)(F)F)cc4)C[C@@H]2N(C)CC3)cc1OC` [CBK042195]: 107%.
For `O=[N+]([O-])c1ccc(N2CCN(CCO)CC2)cc1NCc1ccccc1` [CBK042200], the viability at 28.5 h, 10 µM came out at 99.9%.
Regarding `CN1CCN(C(=O)CNS(=O)(=O)c2ccc3ccccc3c2)CC1` [CBK042205], the viability at 28.5 h, 10 µM was 99.3%.
Under `COc1ccc(Br)cc1S(=O)(=O)NCC(=O)Nc1ccc(F)cc1` [CBK042223] stands 98.1%; under `O=C(CNS(=O)(=O)Cc1ccccc1[N+](=O)[O-])Nc1ccc(F)cc1` [CBK042228], 90%.
Turning to `O=C(CS(=O)(=O)c1cc2c(N3CCNCC3)nccc2s1)c1ccc(N2CCCC2)cc1` [CBK042232C], the viability at 28.5 h, 10 µM was determined as 81.2%.
In the case of `Cc1ccc(S(=O)(=O)Nc2sccc2C(=O)O)cc1` [CBK042244], the viability at 28.5 h, 10 µM was determined as 98.6%.
Under `O=C(O)c1ccsc1NS(=O)(=O)c1ccc(Oc2ccccc2)cc1` [CBK042259] stands 89.8%; under `CN1CCN(C(=O)c2ccsc2NS(=O)(=O)Cc2ccccc2)CC1` [CBK042266], 97.5%.
The same measure for `CN1CCN(C(=O)c2ccsc2NS(=O)(=O)/C=C/c2ccccc2)CC1` [CBK042267]: 104%; for `CN1CCN(C(=O)c2ccsc2NS(=O)(=O)c2ccc(-c3ccccc3)cc2)CC1` [CBK042274]: 103%; for `O=C(c1ccsc1NS(=O)(=O)c1ccc2ccccc2c1)N1CCOCC1` [CBK042278]: 93.7%.
The same measure for `O=C(c1ccsc1NS(=O)(=O)/C=C/c1ccccc1)N1CCOCC1` [CBK042285]: 90.8%; for `O=C(c1ccsc1NS(=O)(=O)Cc1ccccc1[N+](=O)[O-])N1CCOCC1` [CBK042294]: 89.6%.
As to `O=C(Nc1ccc(F)cc1)c1ccsc1NS(=O)(=O)Cc1ccccc1` [CBK042303], the viability at 28.5 h, 10 µM was 82.8%.
Under `CCN(CC)C(=O)c1ccsc1NS(=O)(=O)c1cc(Br)ccc1OC` [CBK042327] stands 103%.
Under `CC(C)c1ccc(NS(=O)(=O)c2csc3ccnc(N4CCNCC4)c23)cc1` [CBK042343C] stands 95.8%.
For the compound `O=C(O)c1ccccc1NS(=O)(=O)c1cccc2cccnc12` [CBK042358], the viability at 28.5 h, 10 µM came to 56.7%.
The same measure for `CC(=O)Nc1ccc(S(=O)(=O)Nc2ccccc2C(=O)O)cc1` [CBK042361]: 107%.
Take `O=C(O)c1ccccc1NS(=O)(=O)/C=C/c1ccccc1` [CBK042363]: the viability at 28.5 h, 10 µM stood at 102%.
Under `COc1ccc(S(=O)(=O)Nc2ccccc2C(=O)O)cc1OC` [CBK042368] stands 85.7%.
Under `O=C(NCCC1=CCCCC1)Nc1ccc(F)c(F)c1F` [CBK043265] stands 89.3%.
As to `Cc1ccc(NS(=O)(=O)c2ccc(OC(F)(F)F)cc2)c(CO)c1` [CBK043267], the viability at 28.5 h, 10 µM is 86.8%.
Under `C[C@@H]1[C@H](c2ccccc2)OC(=O)N1C1CCN(S(=O)(=O)c2cccs2)CC1` [CBK043302] stands 93.9%; under `O=C1OCCN1C1CCN(S(=O)(=O)c2cccs2)CC1` [CBK043313], 99.3%.
In the case of `O=C(c1ccccc1NS(=O)(=O)c1cccc2cccnc12)N1CCOCC1` [CBK043338], the viability at 28.5 h, 10 µM worked out at 87.1%.
In the case of `O=S(=O)(NCc1cccc(F)c1)c1ccc(OC(F)(F)F)cc1` [CBK043379], the viability at 28.5 h, 10 µM worked out at 88.5%.
The same measure for `CCCCOC(=O)c1ccc(NC(=O)NCCc2cccs2)cc1` [CBK043381]: 86%.
